Test results as given in US11918590B2 (Intas Pharmaceuticals Ltd., priority 2021, dated 2024).
≈ marks a conversion by molar mass, not a printed value. Where two headings read alike, the source gives them in different places.

Assays:
[1] = cited from earlier work
[2] = Solubility study of clozapine at various pH and solvent; type: physicochemical
[3] = pH 4.0 to 4.5 of Acetate buffer

CN1CCN(C2=Nc3cc(Cl)ccc3Nc3ccccc32)CC1 [Clozapine, 8-chloro-11-(4-methyl-1-piperazinyl)-5H-dibenzo [b,e][1,4] diazepine]
solubility in water [1]: very slightly soluble in water

CN1CCN(C2=Nc3cc(Cl)ccc3Nc3ccccc32)CC1 [Micronized, Clozapine]
Solubility ([2]; 0.1N Hydrochloric acid): 28727 µg/mL (≈ 87900 µM) | Solubility ([2]; Purified Water): 31 µg/mL (≈ 94.9 µM) | Solubility [2, 3]: 4773 µg/mL (≈ 14600 µM) | Solubility ([2]; pH 6.8 of Phosphate buffer): 121 µg/mL (≈ 370 µM)

CN1CCN(C2=Nc3cc(Cl)ccc3Nc3ccccc32)CC1 [Un-micronized, Clozapine]
Solubility ([2]; 0.1N Hydrochloric acid): 418 µg/mL (≈ 1280 µM) | Solubility [2, 3]: 730 µg/mL (≈ 2230 µM) | Solubility ([2]; phosphate buffer, pH 6.8, aqueous buffer, thermodynamic from solid, pH 6.8 of Phosphate buffer, read-out: Solubility): 100 µg/mL (≈ 306 µM) | Solubility ([2]; purified water, water, thermodynamic from solid, Purified Water, read-out: Solubility): 40 µg/mL (≈ 122 µM)
